According to patent US7960422B2, “Pharmaceutically active compounds containing tetrazolyl and triazolyl rings” (AstraZeneca AB, priority 2007, dated 2011):

These molecules were tested against T1, human mGluR5d (Homo sapiens, UniProt P41594) (assay: IP3 assay (phosphatidylinositol turnover, functional mGluR5 antagonism)). Details: GHEK cells stably expressing human mGluR5d; glutamate (80 μM) or DHPG (30 μM) as agonist.
T1 construct: expressed in transfected cells
Type: cell-based
Description: Biological Evaluation Functional Assessment of mGluR5 Antagonism in Cell Lines Expressing mGluR5D
The properties of the compounds of the invention can be analyzed using standard assays for pharmacological activity. Examples of glutamate receptor assays are well known in the art as described in for example Aramori et al., Neuron 8:757 (1992), Tanabe et al., Neuron 8:169 (1992), Miller et al., J. Neuroscience 15: 6103 (1995), Balazs, et al., J. Neurochemistry 69:151 (1997). The methodology described in these publications is incorporated herein by reference. Conveniently, the compounds of the invention can be studied by means of an assay (FLIPR) that measures the mobilization of intracellular calcium, [Ca^2+]i in cells expressing mGluR5 or another assay (IP3) that measures inositol phosphate turnover.
An additional functional assay for mGluR5d is described in WO97/05252 and is based on phosphatidylinositol turnover. Receptor activation stimulates phospholipase C activity and leads to increased formation of inositol 1,4,5,triphosphate (IP3).
GHEK stably expressing the human mGluR5d are seeded onto 24 well poly-L-lysine coated plates at 40×10^4 cells/well in media containing 1 μCi/well [3H] myo-inositol. Cells were incubated overnight (16 h), then washed three times and incubated for 1 h at 37° C. in HEPES buffered saline (146 mM NaCl, 4.2 mM KCl, 0.5 mM MgCl2, 0.1% glucose, 20 mM HEPES, pH 7.4) supplemented with 1 unit/ml glutamate pyruvate transaminase and 2 mM pyruvate. Cells are washed once in HEPES buffered saline and pre-incubated for 10 min in HEPES buffered saline containing 10 mM LiCl. Compounds are incubated in duplicate at 37° C. for 15 min, then either glutamate (80 μM) or DHPG (30 μM) is added and incubated for an additional 30 min. The reaction is terminated by the addition of 0.5 ml perchloric acid (5%) on ice, with incubation at 4° C. for at least 30 min. Samples are collected in 15 ml polyproplylene tubes and inositol phosphates are separated using ion-exchange resin (Dowex AG1-X8 formate form, 200-400 mesh, BIORAD) columns. Inositol phosphate separation was done by first eluting glycero phosphatidyl inositol with 8 ml 30 mM ammonium formate. Next, total inositol phosphates is eluted with 8 ml 700 mM ammonium formate/100 mM formic acid and collected in scintillation vials. This eluate is then mixed with 8 ml of scintillant and [3H] inositol incorporation is determined by scintillation counting. The dpm counts from the duplicate samples are plotted and IC50 determinations are generated using a linear least squares fitting program.

T1 sequence (P41594 21-942 isoform P41594-3 limits assumed): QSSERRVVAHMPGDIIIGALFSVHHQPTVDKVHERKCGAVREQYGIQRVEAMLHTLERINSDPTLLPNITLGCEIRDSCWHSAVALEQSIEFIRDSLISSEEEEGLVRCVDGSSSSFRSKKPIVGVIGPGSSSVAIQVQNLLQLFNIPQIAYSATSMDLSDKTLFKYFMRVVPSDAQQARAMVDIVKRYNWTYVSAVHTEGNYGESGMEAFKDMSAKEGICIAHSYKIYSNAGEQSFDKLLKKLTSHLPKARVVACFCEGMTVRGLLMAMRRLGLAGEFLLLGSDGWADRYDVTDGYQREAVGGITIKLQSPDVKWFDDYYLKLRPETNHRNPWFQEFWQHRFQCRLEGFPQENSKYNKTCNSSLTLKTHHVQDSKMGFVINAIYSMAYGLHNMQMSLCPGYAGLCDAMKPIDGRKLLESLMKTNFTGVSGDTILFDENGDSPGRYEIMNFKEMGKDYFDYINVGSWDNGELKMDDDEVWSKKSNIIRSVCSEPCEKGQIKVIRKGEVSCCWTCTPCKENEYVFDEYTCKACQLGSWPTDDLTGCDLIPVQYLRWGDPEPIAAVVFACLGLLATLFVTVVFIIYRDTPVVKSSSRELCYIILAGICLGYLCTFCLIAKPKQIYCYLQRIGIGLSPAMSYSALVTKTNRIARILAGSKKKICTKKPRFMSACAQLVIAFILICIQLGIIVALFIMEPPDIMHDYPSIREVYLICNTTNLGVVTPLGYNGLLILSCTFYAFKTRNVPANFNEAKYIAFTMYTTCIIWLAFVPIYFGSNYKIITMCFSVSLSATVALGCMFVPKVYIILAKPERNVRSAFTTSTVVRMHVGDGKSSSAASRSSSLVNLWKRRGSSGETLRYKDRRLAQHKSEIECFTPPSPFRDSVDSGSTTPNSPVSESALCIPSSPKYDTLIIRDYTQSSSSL

Compared with `Cc1cccc(-n2nnc([C@@H](C)Oc3nnc(-c4ncccn4)n3C)n2)c1` [Example 10.1, 2-(4-methyl-5-{(1R)-1-[2-(3-methylphenyl)-2H-tetrazol-5-yl]ethoxy}-4H-1,2,4-triazol-3-yl)pyrimidine], `Cc1cccc(-n2nnc([C@@H](C)Oc3nnc(-c4cccnc4)n3C)n2)c1` [Example 10.5] is 1.6-fold lower in IC50: 36 nM for the first, 23 nM for the second. The second is the more potent here.

`Cc1cccc(-n2nnc([C@@H](C)Oc3nnc(-c4ccnc(C)c4)n3C)n2)c1` [Example 10.4, 2-methyl-4-(4-methyl-5-{(1R)-1-[2-(3-methylphenyl)-2H-tetrazol-5-yl]ethoxy}-4H-1,2,4-triazol-3-yl)pyridine] and `Cc1cccc(-n2nnc([C@@H](C)Oc3nnc(-c4cnc(C)cn4)n3C)n2)c1` [Example 10.3, 2-methyl-5-(4-methyl-5-{(1R)-1-[2-(3-methylphenyl)-2H-tetrazol-5-yl]ethoxy}-4H-1,2,4-triazol-3-yl)pyrazine] are within 1.5-fold of each other in IC50: 20 nM for the first, 22 nM for the second.

`Cc1cccc(-n2nnc([C@@H](C)Oc3nnc(-c4cncnc4)n3C)n2)c1` [Example 10.2, 5-(4-methyl-5-{(1R)-1-[2-(3-methylphenyl)-2H-tetrazol-5-yl]ethoxy}-4H-1,2,4-triazol-3-yl)pyrimidine] was tested, and the IC50 was 25 nM.
